Starred links: 1 amine or outer side, 2 acyl side, 3 side chain; linkers in the order of their positions; H or OH if unused. Non-standard residues stand in square brackets, D forms with d. Residues, ends and D or L forms follow the SMILES beside them. *: point of attachment. EDDnp = O=[N+]([O-])c1ccc(NCCN*)c([N+](=O)[O-])c1; PABC = O=C(OCc1ccc(N[*:1])cc1)[*:2]; X1 = [N-]=[N+]=NCCOCCOCCOCC(=O)*; Cit = NC(=O)NCCC[C@H](N)C(=O)O; AEEEA = NCCOCCOCCOCC(=O)O

The text below walks through data of patent US12084403B2, “Linkers for antibody drug conjugates” (THE BOARD OF REGENTS OF THE UNIVERSITY OF TEXAS SYSTEM, priority 2017, dated 2024).

For one series, the target named is human cathepsin B (Homo sapiens, UniProt P07858). Briefly: Cathepsin B-mediated cleavage of linear and branched probes in FRET assay. Type of series: biochemical. The settings on record: for Slope (RFU/sec): quencher (EdDnp) release rate, linear regression, triplicate; for release of EdDnp in the presence of human cathepsin B: result in words. Here is the method: FIG. 2. Quencher release rate determination in Förster resonance energy transfer (FRET) assay. Each slope reflecting drug (quencher) release rate was calculated by linear regression using Graph Pad Prism 7 software. […] All assays were performed in triplicate and error bars represent SEM.
These model linker units consisted of cathepsin B-cleavable valine-citrulline (Val-Cit) with or without polyethyleneglycol (PEG) spacers. This dipeptide sequence has been used in many successful ADCs including the FDA-approved ADC Adcetris® (Katz et al., 2011). The sequence is stable in circulation but in lysosomes undergoes cathepsin B-mediated cleavage, resulting in intracellular release of payload (Dubowchik et al., 2002). Tryptophan and 2,4-dinitrophenylethylenediamine (EdDnp) were installed as a fluorophore/quencher(s) pair, which is commonly used in the Förster resonance energy transfer (FRET) assay. The release of EdDnp from each synthetic model linker unit in the presence of human cathepsin B (Table 1 and Scheme 3) was assessed. […] Without wishing to be bound by any theory, it is surmised that the structural congestion of branched probe 3 due to the lack of PEG spacers prevents cathepsin B accessing Val-Cit moieties.

Series [1] in a line: Plasma stability test using pyrene probes, BALB/c mouse plasma. Type of series: in vitro ADME. The conditions noted are these: undiluted BALB/c mouse plasma, 37° C., HPLC. Here is the method: To test this hypothesis, a panel of peptide probes containing a various amino acid at the P3 position were evaluated for plasma stability at the small-molecule level (FIG. 13B). VCit- and tripeptide probes 12a-f were first synthesized by standard solid- and liquid-phase peptide synthesis and following carbamate formation. These model probes consisted of a XVCit-PABC unit where X is none (12a), serine (12b), glutamic acid (12c), aspartic acid (12d), lysine (12e), or hydroxyacetylglycine (12f). It was assumed that serine and hydroxyacetylglycine would serve as a mimic of the hydroxy-functionalized tripeptide ADC linker with increased mouse plasma stability reported by Dorywalska et al (Dorywalska et al., 2016). In particular, the 2-hydroxyacetamide group within probe 12f is the modifier that provided the greatest stability in their report. These linkers were covalently linked to 1-pyrenemethylamine, a surrogate of hydrophobic payloads with distinct UV absorbance at 341 nm (van Geel et al., 2015). Subsequently, probes 12a-f were incubated in undiluted BALB/c plasma at 37° C. and the amount of each probe was monitored by HPLC (FIG. 13C). […] Taking into account that all probes tested were stable in human plasma and no significant degradation was observed after 2 days (FIG. 14A), the accelerated degradation observed in KVCit probe 12e may indicate that a basic side chain at the P3 position provides an additional interaction with Ces1c leading to fast bond cleavage. […] Thus, the stabilizing effect of a neutral carbonyl group at the P3 position was not as significant as that of a negatively charged carboxylic acid side chain.
Plasma stability test using pyrene probes. Each test compound (10 mM in DMSO, 2 μL) was mixed with 1 μL of 1-pyrenemethylamine (10 mM in DMSO, as an internal standard) and incubated at 37° C. for 10 min. Pooled healthy human plasma or BALB/c mouse plasma (197 μL, Innovative Research) was added to the mixture, followed by incubation at 37° C. Aliquots (10 μL) were collected at each time point (0, 1, 6, 24, 48, and 96 h) and 40 μL of cold acetonitrile containing 1% formic acid was added to precipitate proteins. Supernatant of each sample was obtained and analyzed for quantification by analytical HPLC as described above. All assays were performed at least three times in technical duplicate, and data shown are representative of the replicates.

For the next series, the target named is T1, Human liver cathepsin B (Homo sapiens, UniProt P07858).
T1 construct: Human liver cathepsin B (20 ng/μL, 100 μL, EMD Millipore); purchased EMD Millipore; host or cells: human liver (tissue-derived, as the name says)
Kind of series: Cathepsin B-mediated cleavage assay using pyrene probes. Type of series: biochemical. The conditions noted are these: 37° C., result in words. Here is the method: Next, all probes were tested for responsiveness to human cathepsin B-mediated cleavage (FIG. 14B).
Cathepsin B-mediated cleavage assay using pyrene probes. Each test compound (10 mM in DMSO, 2 μL) was mixed with 97 μL of MES buffer (25 mM MES-Na, 1 mM DTT, pH 5.0) and 1 μL of 1-pyrenemethylamine (10 mM in DMSO, as an internal standard). The mixture was incubated at 37° C. for 10 min. Human liver cathepsin B (20 ng/μL, 100 μL, EMD Millipore) in MES buffer was added to the mixture, followed by incubation at 37° C. Aliquots (10 μL) were collected at each time point (0, 0.5, 1, 3, 24, and 48 h). Cold acetonitrile containing 1% formic acid (40 μL) was added to precipitate proteins. Precipitated proteins were separated by centrifugation (15,000 g, 4° C., 30 min) and supernatant of each sample was analyzed for quantification by analytical HPLC (UV absorption at 342 nm). The amount of each probe was normalized to the peak area of the internal standard. All assays were performed at least three times in technical duplicate, and data shown are representative of the replicates.

In the case of `CC(=O)N[C@@H](Cc1c[nH]c2ccccc12)C(=O)N[C@@H](CCCCNC(=O)COCCOCCOCCN=[N+]=[N-])C(=O)NCCOCCOCCOCC(=O)N[C@H](C(=O)N[C@@H](CCCNC(N)=O)C(=O)Nc1ccc(COC(=O)NCCNc2ccc([N+](=O)[O-])cc2[N+](=O)[O-])cc1)C(C)C` [probe 2, Ac-Trp-Lys(-PEG3-N3)-PEG3-Val-Cit-PABC-EdDnp] (Ac-WK(X1)[AEEEA]V[Cit][PABC]-EDDnp), on human cathepsin B, the “Slope (RFU/sec)” value was 1.81 ± 0.07 RFU/sec and the “release of EdDnp in the presence of human cathepsin B” value (from here on “release of EdDnp”) was “released EdDnp more efficiently than Linear PEG (−) 1”. Regarding “Ac-Glu-Val-Cit-PABC-Sar-pyrene [probe 12c]”, in series [1], the t1/2 is on record as 19.1 h. With “Ac-Ser-Val-Cit-PABC-Sar-pyrene [probe 12b]”, the t1/2 in series [1] is 3.1 h. For the same compound, on Human liver cathepsin B, the “human cathepsin B-mediated cleavage rate” value was “comparable with that of VCit probe 12a”. Consider `CC(=O)N[C@@H](Cc1c[nH]c2ccccc12)C(=O)N[C@@H](CCCCn1cc(CCC(=O)N[C@H](C(=O)N[C@@H](CCCNC(N)=O)C(=O)Nc2ccc(COC(=O)NCCNc3ccc([N+](=O)[O-])cc3[N+](=O)[O-])cc2)C(C)C)nn1)C(=O)N[C@H](C(=O)N[C@@H](CCCNC(N)=O)C(=O)Nc1ccc(COC(=O)NCCNc2ccc([N+](=O)[O-])cc2[N+](=O)[O-])cc1)C(C)C` [probe 3], for which, at human cathepsin B, the “Slope (RFU/sec)” value is recorded as 0.03 ± 0.06 RFU/sec and the “release of EdDnp” value is listed as “marginal release of EdDnp”.

With Ac-Val-Cit-PABC-Sar-pyrene [probe 12a], the t1/2 in series [1] is listed as 2.3 h. Same read-out and setting: then “Ac-Asp-Val-Cit-PABC-Sar-pyrene [probe 12d]”, with 14.0 h; and “Ac-Lys-Val-Cit-PABC-Sar-pyrene [probe 12e]”, with 0.9 h. “HOCH2CO-Gly-Val-Cit-PABC-Sar-pyrene [probe 12f]” yielded a t1/2 in series [1] of 5.0 h. Consider `CC(=O)N[C@@H](Cc1c[nH]c2ccccc12)C(=O)N[C@@H](CCCCNC(=O)COCCOCCOCCn1cc(CCC(=O)N[C@H](C(=O)N[C@@H](CCCNC(N)=O)C(=O)Nc2ccc(COC(=O)NCCNc3ccc([N+](=O)[O-])cc3[N+](=O)[O-])cc2)C(C)C)nn1)C(=O)NCCOCCOCCOCC(=O)N[C@H](C(=O)N[C@@H](CCCNC(N)=O)C(=O)Nc1ccc(COC(=O)NCCNc2ccc([N+](=O)[O-])cc2[N+](=O)[O-])cc1)C(C)C` [probe 4], for which, on human cathepsin B, the “Slope (RFU/sec)” value was 1.56 ± 0.05 RFU/sec and the “release of EdDnp” value was “comparable to that of linear PEG (+) probe 2”.
